{"source": "paper PMC2833348", "about": "(Bioorganic & medicinal chemistry letters, 2010)", "origin": "cited, not measured here", "tested_on": "cell - cell fusion (CCF)", "conditions": "read-out: IC50 against cell - cell fusion (CCF)", "data": [{"smiles": "COc1ccc(S(=O)(=O)O)cc1/N=N/c1c(S(=O)(=O)O)cc2cc(Nc3nc(Nc4ccccc4)nc(Nc4cc(C)c(/N=N/c5cc(S(=O)(=O)O)cc6cc(S(=O)(=O)O)cc(O)c56)cc4OC)n3)ccc2c1O", "note": "[ADS-J1]", "values": [{"measurement": "IC50", "value": 4.2, "unit": "µM"}]}]}
